# According to publication PMC11134387, “Cancer-Stem-Cell Phenotype-Guided Discovery of a Microbiota-Inspired Synthetic Compound Targeting NPM1 for Leukemia” (JACS Au, 2024):
# pKd: −log10 of the molar value.
# Assays:
# NPM1 C-end C+ = target: T1, NPM1 C-end C+ (Homo sapiens, UniProt P06748); assay: Isothermal titration calorimetry, NPM1 C-end C+; format: binding; conditions: ITC
# T1 construct: the C-end domain (residues 225- 294); 6xHis (N); made in house; host or cells: E. coli BL21(DE3)
# Description: To confirm a direct interaction of UCM-13369 with NPM1 and to address which domain of the protein would be responsible for binding the compound, pure protein samples of the pentameric N-end domain of NPM1, along with the C-terminal DNA-binding domains of WT and mutant NPM1 C+, were used in calorimetry assays. […] This is indicative of a lower diversity in the chemical environment of amide protons consistent with the previously reported protein unfolding.[29] […] On the other hand, the pentameric construct of the NPM1 N-end, which lacks the AML-related region, yielded a much lower binding affinity (KD ca. 100 μM range, Figure 3D).
# ITC experiments were performed in a Nano ITC Low Volume (TA Instruments) at 25 °C. […]
# The purity of the protein samples was checked by SDS–PAGE analysis (Figure S3) and protein quantification was performed using the Bradford protein assay.5 NPM molar concentration was expressed as the pentameric form for NPM1 WT N-end and as a monomer for NPM1 C-end WT and mutant. […]
# After extraction with acetonitrile and acidification, samples were desalted and concentrated with C18 tips. Mass spectra were recorded in a Hybrid Quadrupole-Orbitrap™ Mass Spectrometer (Thermo Scientific, Waltham, Massachusetts, USA)
# NPM1 = assay: Western blot of NPM1 in MOLM13 cells; format: cell-based; conditions: MOLM13, 10 µM
# Protocol: We next studied the impact of UCM-13369 in the genes and/or expression levels of NPM1 and NPM1 C+ pathway components (Figure 4A), including the positive regulation of c-Myc[34] and the negative regulation of FBXW7 and the pro-apoptotic CASP8.[35] […] The inhibition of NPM1 was also observed in MOLM13 cells expressing WT NPM1 (Figure S1B).
# 1. Figures S1 -S4and T ab les S1 , S2
# Figure S1. (A) Dose-response curve of UCM-13369 in MCF-7, HCT-116 and IMR90 […]
# (10 µM) in MOLM13 cells at 24 and 48 h. Densitometry values: reduction of 5% and […]
# between NSG mice injected with OCI-AML3 cells, with and without UCM-13369 treatment (50 mg/kg). (D) IHC analysis of a poptotic cells in a representative kidney sample from OC I-AML 3 xenograft mice treat ed with DMSO (vehicle, top) vs . UCM-13369 treated mice (50 mg/kg, bottom) mice: H&E ( left) and cleav ed caspase- 3 (right). […]
# Proteomic analysis. A supplementary table (Excel file) includes all the data of the proteomic analysis, showing all the proteins identified, not only those ablated in the treated population, but also those found with different expression levels in both populations under study, and even those that were not detected in the control population but were detected in the treated population. Follows the image of a Venn diagram showing the number of proteins detected in each of the pop ulations and the proteins that converg e […]
# T1 sequence (P06748 with tags, fused parts or gaps limits assumed): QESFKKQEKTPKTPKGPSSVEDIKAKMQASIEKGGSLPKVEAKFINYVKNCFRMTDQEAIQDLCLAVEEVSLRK
smiles,measurement,setting,value
"COc1ccc(C2Cc3[nH]c4ccccc4c3C(CCNCC3CC3)C2N)cc1 (stereo not shown) [4b, 4-{2-[(Cyclopropylmethyl)amino]ethyl}-2-(4-methoxyphenyl)-2,3,4,9-tetrahydro-1H-carbazol-3-amine]",pKd,"NPM1 C-end C+; 25 °C, NPM1 C-end C+",4.82
same,Higher affinity of NPM1 C-end C+ than WT domain,NPM1 C-end C+; C+ variant vs WT domain,2 fold
same,Densitometry values (NPM1): reduction,NPM1; 24 h,5%
same,Densitometry values (NPM1): reduction,NPM1; 48 h,44%
